In US20230226048A1, “NEW USE OF RABEXIMOD” (Cyxone AB, priority 2020, published 2023):

What was measured:
[1] = test system: collagen-induced arthritis model; conditions: dark agouti rats, daily subcutaneous administration from the day of immunization; cited from earlier work
[2] = test system: human peripheral blood mononuclear cells (PBMC); assay: LPS-stimulated cytokine/chemokine release from human PBMC in vitro (multiplex, Luminex); assay type: cell-based; conditions: PBMC from 7 donors
Experimental: The effect of Rabeximod on the release of GM-CSF, IL-113, IL-6, IL-8, TNF-α, MCP-1, MIP-1a, MIP-1β and RANTES from human peripheral blood mononuclear cells (PBMC) in vitro was evaluated. Rabeximod was tested at two concentrations (1.25 μg/ml and 12.5 μg/ml) on PBMC's isolated from 7 donors. Human PBMCs were isolated from whole blood using a Ficoll gradient. Cells ([…]) were then plated in a volume of 0.5 ml (0.5 ml of vehicle control (1% methanol in RPMI 1640 media) or rabeximod resuspended in methanol and diluted to a concentration of […] media was added). After incubation (1 h 37° C.) with LPS (0.1 mg/ml), cells were further incubated for 18-20 h before supernatant was removed for analysis of cytokine production using cytokine multiplex assays (Biosource, Nivelles, Belgium), accord-ing to the manufacturer's instructions. Data were collected using a Luminex 100 (Luminex Corporation, Austin, Tex., USA). All samples were analyzed in duplicates and a mean value for each sample was calculated.

[3] = test system: mixed lymphocytes reaction (MLR) of human donors; assay: Mixed lymphocytes reaction (MLR) of human donors, 3[H]-thymidine incorporation; assay type: cell-based
Experimental: Peripheral blood mononuclear cells (PBMCs) were prepared and modified for use as stimulator cells through γ-irradiation, or for use as responder cells. Rabeximod was then added to a responder and […] cell mix at various concentrations (of 10^−5, 10^−6, 10^−7 and 10^−8 M) before the cells were incubated. In the test, responder cells should proliferate more in the presence than in the absence of stimulator cells.
Normal PBMCs were obtained from healthy volunteers at the blood bank (Shiba medical center, Tel-Hashomer). Blood donations tested negative to HBSAg, HIV, HCV, ALT, HTLV and TPHA. Twelve donors were obtained in 3 sessions following review by the Committee for Ethical Conduct in the Care and Use of Laboratory Animals of the Hebrew University, Jerusalem, the Institutional Animal Care and Use Committee (IACUC) responsible for approving Harlan Biotech (Israel) animal usage application in compliance with its respective registration under National Institues of Health (NIH) accreditation no. OPR-A01-5011. Peripheral blood mononuclear cells (PBMCs) were freshly separated from heparinized full blood by Ficoll-Hypaque (IsoPrep, Robbins Scientific) density gradient centrifugation. After two washes with PBS, cells were diluted in PBMCs medium and counted. Since MLR was conducted in two-ways format, each donor was utilized as stimulator and as responder.
In each session, 0.87*10^6/ml PBMCs cells from each donor were mixed and then γ-irradiated with 4000 rad (about 6.25 minutes). Cells were diluted in PBMCs medium to give the highest concentration). Further dilutions in ×2-fold were done in PBMCs medium. 50*10^6 were taken from each donor to obtain a mixture of stimulators in each experiment.
Cells were resuspended in PBMCs medium at approximately 2*10^6 cells/ml and incubated in flasks for 2 hours at 5% CO2, 37° C. Adherent cells were dis-carded while non-adherent cells in the supernatant were centrifuged at 700 g for 10 minutes. To enrich for T lymphocytes, cells were resuspended in 5% PBMCs medium and loaded on nylon wool columns (Uni-Sorb, Novamed) at 8*10^7 cells/ml, according to manufacturer instructions.
Cells were seeded in 96-well round-bottom plates at the varying ratios of stimulator vs. responder cells.
^3[H]-Thymidine was added to the cell culture at 18 hrs before the end of the cultivation period (6 days). Cells were harvested and transferred to filters (unifilters GF/C) using the Packard filtermate Cell harvester. Following addition of scintillation fluid (MicroScint20™) to the filters, they were counted in Packard microplate scintillation β-counter. Results are expressed as Counting Per Minutes (CPM).

[4] = test system: T cell proliferation; assay: ConA-stimulated proliferation of lymph node cells from DA rats immunized with rat collagen II, [3H]-thymidine; assay type: cell-based; conditions: ConA 1.5 μg/ml, 48 h
Experimental: draining lymph nodes collected day 9 p.i. from DA rats immunized with rat collagen II (RCII) in Freund's Incomplete Adjuvant (FIA) were used to prepare individual single cell suspensions. Lymph nodes were grinded through wire mesh and cells washed 3 times in incomplete DMEM cell culture medium. Cells were counted by trypan blue exclusion and cell suspensions of 2×10^6 cells/ml in complete DMEM prepared. 4×10^5 cells per well were seeded in flat-bottomed 96-well microtiter plates. Triplicates of each individual cell suspension were incubated with 1.5 μg/ml ConA. ConA was diluted in phosphate buffered saline, D-PBS. Spontaneous proliferation was determined by measuring proliferation in cell cultures without addition of ConA. As a positive proliferation control cells were stimulated with ConA together with 10 μl of the rabeximod vehicle, 0.01 M acetic acid. Doses of rabeximod were added in 10 μl vehicle so that the final concentrations in cell cultures ranged from 50-800 ng/ml. Cell cultures were incubated at 37° C.+5% CO2 for 48 h and 1 μCi of [^3H]-Thymidine per well was added to the cultures for the last 12 h. Cellular incorporation of [^3H]-thymidine was measured using a 1450 Microbeta Wallac Trilux Liquid Scintillation Luminescence Counter after harvesting the cells onto nitrocellulose filters.
Individual Inhibition Indices (1.1.) were calculated by dividing the average counts per minute (cpm) value of each triplicate stimulated with ConA and rabeximod with the average cpm value of the triplicate stimulated with ConA only. The inhibition of proliferation induced by rabeximod addition was expressed as % of the positive control (ConA only), i.e. by multiplying the inhibition indices with 100.

[5] = test system: wild type and TLR4 deficient mice; assay: Collagen antibody-induced arthritis (CAIA) boosted with TLR stimuli in mice, arthritis scoring; assay type: in vivo, mouse; conditions: for arthritis severity: 40 mg/kg subcutaneously every second day, day 5 to 15
Text: QB mice (10-20 weeks) were generated from a (BALB/cxB10.Q) F1 cross. C57BL/10ScNJ mice (Tlr4^lps-del), hereafter called Tlr4^del, were ordered from The Jackson Laboratory (The Jackson Laboratory, Bar Harbor, Me., USA). These mice have deletion of the Tlr4 gene that results in absence of mRNA and protein and is thus defective in response to LPS stimulation. These mice were crossed together with C57BL/10.Q mice from Medical Inflammation Research, Lund university, Lund, Sweden in order to generate mice expressing major histocompatibility complex (MHC) Aq. Mice were kept and bred in a climate-controlled environment with a 12 h light/dark cycle, fed standard rodent chow and water ad libitum in the animal facility of Medical Inflammation Research, Lund University, Lund, Sweden.
Litters were genotyped for MHC using microsatellite marker D17mit230. Genotyping of Tlr4 was performed according to an earlier described method. Briefly, DNA was prepared from biopsies and primers flanking the 70 kb deletion or amplifying the wild-type sequence absent in the TLR4 deleted mice were used.
The mice were matched according to age and sex, and littermates were used in all experiments. All experiments were approved according to Malmö/Lund ethical committee license M107-07.
Male mice, older than 8 weeks, were injected intravenously on day 0 with a cocktail of four monoclonal antibodies (4 mg in a total volume of 310 μl/mouse) containing M2139, CIIC1, CIIC2 and UL1 antibodies binding to J1, C1^I, D3 and U1 epitopes of CII in order to induce CAIA. Day 5 mice were injected with LPS from Escherichia coli (Sigma-Aldrich, St Louis, Mis-souri, USA), deoxycytoylate-phosphate-deoxyguanylate (CpG) DNA (sequence 1668, MWG; Eurofins MWG, Erdersberg, Germany) or lipomannan (LM) from Mycobacterium segma-tis (InvivoGen, San Diego, Calif., USA) intraperitoneally to boost disease (35-50 μg/mouse in 1 ml phosphate-buffered saline (PBS)).
Mice were blindly scored daily to every second day until the end of the experiment. […]

[6] = cited from earlier work
[7] = test system: TLR2 stimulated macrophages; assay: TNF-α production by thioglycolate-recruited peritoneal macrophages after LPS or TLR2 stimuli (ELISA); assay type: cell-based, mouse; conditions: 12.5 ug/ml, added 0 h to +3 h after stimulus; stronger effect if administered early
Experimental: The aim was to investigate whether, after stimulation, Rabeximod has the ability to decrease production of pro-inflammatory cytokines by macrophages isolated from the peritoneal cavity after thioglycolate recruitment. B10.Q mice with/without expression of functional TLR4 matched according to sex and age were used as donors of peritoneal macrophages. Mice were injected on day −5 with sterilized 3% Thioglycolate intraperitoneally. On day 0 the peritoneal cavity was washed with ice cold PBS to collect recruited cells. The cells were counted and added to plates at a final concentration of 200 000 cells/well in medium. Rabeximod diluted in a minimal amount DMSO and then DMEM to final concentration (12.5 ug/ml) was added simultaneously (h 0) or at time points+0.5 h, +1 h or +3 hours after LPS or TLR2 stimuli (Lipomannan). Cells were incubated for 24 hours before the whole plate was frozen. TNF-α ELISA was performed after one week using antibodies from e-biosciences and detected by europium. Mice were injected on […] (1 ml) intraperitoneally. […] TNFα production was determined using a ready-SET-go! […]

[8] = test system: IL-6; assay: Phase IIa clinical trial in rheumatoid arthritis patients, IL-6 assessment (PK/PD population); assay type: in vivo, human; conditions: RA patients
Experimental: In a phase IIa clinical trial, a total of 225 patients diagnosed with active rheumatoid arthritis were randomized to receive one of the following treatments: • 6.25 mg of Rabeximod (daily) • 15 mg of Rabeximod (daily) • 37.5 mg of Rabeximod (daily) • Placebo
Study drug was provided in the form of a capsule comprising rabeximod in the form of a (micronized) powder. Over 200 patients completed the study.
The primary aim of the study was to evaluate the safety and efficacy of
Rabeximod treatment in RA patients. The study also involved Pharmacokinetic and Pharmacodynamic assessments in a subgroup (PK/PD Population) of 36 patients. This included assessment of changes in hsCRP, TNF-α, IL-6, COMP and anti-CCP.

[9] = test system: murine arthritis model; conditions: murine arthritis model in mice; cited from earlier work

Compound: Cc1cc2nc3c4cc(Cl)ccc4n(CC(=O)NCCN(C)C)c3nc2cc1C [Rabeximod, 9-Chloro-2,3-dimethyl-6-(N,N-dimethylaminoethylamino-2-oxoethyl)-6H-indolo-[2,3-b]quinoxaline]
- arthritis severity [1]: suppressed
- onset of clinical arthritis [1]: significantly delayed
- LPS-stimulated production of IL-6 ([2]; 1.25 μg/ml): significantly reduced
- LPS-stimulated production of MIP-1α ([2]; 1.25 μg/ml): significantly reduced
- LPS-stimulated production of MIP-1β ([2]; 1.25 μg/ml): significantly reduced
- LPS-stimulated production of TNFα ([2]; 1.25 μg/ml): significantly reduced
- LPS-stimulated production of RANTES ([2]; 12.5 μg/ml): all but RANTES were reduced
- LPS-stimulated production of pro-inflammatory cytokines and chemokines other than RANTES ([2]; 12.5 μg/ml): reduced
- inhibition of MLR activity ([3]; 10^−5 M, all responder:stimulator ratios): strong inhibitory effect
- inhibition of MLR activity ([3]; 10^−8 M): the inhibition decreased to a lesser extent
- inhibition of MLR activity ([3]; lower doses (10^−7, 10^−8 M)): less effective
- inhibition of MLR activity ([3]; two highest concentrations (10^−5, 10^−6 M), all tested ratios): highly inhibitory
- inhibition of T cell proliferation ([4]; 300 ng/ml): Approximately 50%
- inhibition of T cell proliferation ([4]; 500 ng/ml): approximately 80%
- inhibition at 0.3 µg/mL ([4]; Rattus norvegicus, T-cell, 300 ng/ml): ≥ 50%
- inhibition at 0.5 µg/mL ([4]; Rattus norvegicus, T-cell, 500 ng/ml): ≥ 80%
- arthritis severity ([5]; TLR4 deficient mice): reduces
- activation of macrophages in animal models of arthritis ([5]; downstream mechanism, likely TLR2 signalling pathway): inhibits
- arthritis severity ([5]; wild type mice): reduces
- fraction in plasma bound to protein [6]: approximately 99%
- TNF-α production from TLR2 stimulated macrophages [7]: decreases
- change in IL-6 median value from baseline ([8]; 6.25 mg daily, Week 12): −185.0 IU/L
- change in IL-6 median value from baseline ([8]; 6.25 mg daily, Week 16): −804 IU/L
- change in IL-6 median value from baseline ([8]; 15 mg daily, Week 12): −1679.0 IU/L
- change in IL-6 median value from baseline ([8]; 15 mg daily, Week 16): −1879 IU/L
- change in IL-6 median value from baseline ([8]; 37.5 mg daily, Week 12): 136.0 IU/L
- change in IL-6 median value from baseline ([8]; 37.5 mg daily, Week 16): −1124 IU/L
- arthritogenic scoring [9]: statistically significant durable reductions
- paw swelling [9]: statistically significant durable reductions
- paw thickness [9]: statistically significant durable reductions
